PubChem BioAssay AID1963430 (Molecular Pharmacology Branch, DTP, NCI, 2024)
Blank lines part the entries; values can stand above or below the molecule they belong to.

Tested on: 521955-158-R2-J5-PDC complex spheroid growth, % test/control
Assay: Anticancer human tumor 521955-158-R2-J5-PDC patient-derived pancreatic carcinoma cell line growth inhibition [Asc]
Conditions: for IC50: curve of first compound; for viability, T/C: stronger effect = lower value
Method in brief: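 Complex spheroids combining tumor cells with HUVEC endothelial cells and human MSCs, at 37 degrees C, 5% CO2; agents tested alone or combined, half-log dilutions from at or near clinical Cmax, or 10 microM if Cmax unknown.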

[1] = second compound 0.03 µM, first compound 0.00316 µM
[2] = second compound 0.03 µM, first compound 0.01 µM
[3] = second compound 0.03 µM, first compound 0.0316 µM
[4] = second compound 0.03 µM, first compound 0.1 µM
[5] = second compound 0.03 µM, first compound 0.316 µM
[6] = second compound 0.03 µM, first compound 1 µM
[7] = second compound 0.0949 µM, first compound 0.00316 µM
[8] = second compound 0.0949 µM, first compound 0.01 µM
[9] = second compound 0.0949 µM, first compound 0.0316 µM
[10] = second compound 0.0949 µM, first compound 0.1 µM
[11] = second compound 0.0949 µM, first compound 0.316 µM
[12] = second compound 0.0949 µM, first compound 1 µM
[13] = second compound 0.3 µM, first compound 0.00316 µM
[14] = second compound 0.3 µM, first compound 0.01 µM
[15] = second compound 0.3 µM, first compound 0.0316 µM
[16] = second compound 0.3 µM, first compound 0.1 µM
[17] = second compound 0.3 µM, first compound 0.316 µM
[18] = second compound 0.3 µM, first compound 1 µM
[19] = second compound 0.949 µM, first compound 0.00316 µM
[20] = second compound 0.949 µM, first compound 0.01 µM
[21] = second compound 0.949 µM, first compound 0.0316 µM
[22] = second compound 0.949 µM, first compound 0.1 µM
[23] = second compound 0.949 µM, first compound 0.316 µM
[24] = second compound 0.949 µM, first compound 1 µM
[25] = second compound 3 µM, first compound 0.00316 µM
[26] = second compound 3 µM, first compound 0.01 µM
[27] = second compound 3 µM, first compound 0.0316 µM
[28] = second compound 3 µM, first compound 0.1 µM
[29] = second compound 3 µM, first compound 0.316 µM
[30] = second compound 3 µM, first compound 1 µM
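Also: spheroids exposed to agents for 7 days before readout.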
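For viability, T/C in this document: 100% = DMSO vehicle control viability.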

IC50 (second compound 0.03 µM): > 1000 nM | IC50 (second compound 0.0949 µM): > 1000 nM | IC50 (second compound 0.3 µM): > 1000 nM | IC50 (second compound 0.949 µM): > 1000 nM | IC50 (second compound 3 µM): > 1000 nM
SMILES: CNC(C)C(=O)NC1CN(S(=O)(=O)c2cccc(S(=O)(=O)N3CCC4CCC(C(=O)NC(c5ccccc5)c5ccccc5)N4C(=O)C(NC(=O)C(C)NC)C3)c2)CCC2CCC(C(=O)NC(c3ccccc3)c3ccccc3)N2C1=O (stereo not given) + CCN1C(C(=O)NC23CCC(C(=O)O)(CC2)CC3)C(c2cccc(Cl)c2F)C2(C(=O)Nc3cc(Cl)ccc32)C12CCCCC2
viability, T/C [1]: 141% | viability, T/C [2]: 76.6% | viability, T/C [3]: 86.4% | viability, T/C [4]: 65.2% | viability, T/C [5]: 66% | viability, T/C [6]: 76% | viability, T/C [7]: 111% | viability, T/C [8]: 95.8% | viability, T/C [9]: 90.7% | viability, T/C [10]: 101% | viability, T/C [11]: 105% | viability, T/C [12]: 115% | viability, T/C [13]: 120% | viability, T/C [14]: 133% | viability, T/C [15]: 84.3% | viability, T/C [16]: 97.6% | viability, T/C [17]: 94% | viability, T/C [18]: 102% | viability, T/C [19]: 87.8% | viability, T/C [20]: 102% | viability, T/C [21]: 158% | viability, T/C [22]: 116% | viability, T/C [23]: 84.2% | viability, T/C [24]: 106% | viability, T/C [25]: 166% | viability, T/C [26]: 102% | viability, T/C [27]: 141% | viability, T/C [28]: 120% | viability, T/C [29]: 151% | viability, T/C [30]: 123%

IC50 (second compound 0.1 µM): 5690 nM | IC50 (second compound 0.316 µM): > 10000 nM | IC50 (second compound 1 µM): 835 nM | IC50 (second compound 3.16 µM): > 10000 nM | IC50 (second compound 10 µM): > 10000 nM
SMILES: O=C(c1cc(Cc2n[nH]c(=O)c3ccccc23)ccc1F)N1CCN(C(=O)C2CC2)CC1 + Cc1c(S(C)(=O)=O)c(-c2cc(F)cc(N3CCN(c4ccc(NS(=O)(=O)c5ccc(NC(CCN6CCC(C(=O)OCCCP(=O)(O)O)CC6)CSc6ccccc6)c(S(=O)(=O)C(F)(F)F)c5)cc4)CC3)c2)c(-c2ccc(Cl)cc2)n1C(C)C
viability, T/C (second compound 0.1 µM, first compound 0.0316 µM): 74.6% | viability, T/C (second compound 0.1 µM, first compound 0.1 µM): 73.8% | viability, T/C (second compound 0.1 µM, first compound 0.316 µM): 66.1% | viability, T/C (second compound 0.1 µM, first compound 1 µM): 68.3% | viability, T/C (second compound 0.1 µM, first compound 3.16 µM): 59% | viability, T/C (second compound 0.1 µM, first compound 10 µM): 41.4% | viability, T/C (second compound 0.316 µM, first compound 0.0316 µM): 51.4% | viability, T/C (second compound 0.316 µM, first compound 0.1 µM): 55.3% | viability, T/C (second compound 0.316 µM, first compound 0.316 µM): 61.4% | viability, T/C (second compound 0.316 µM, first compound 1 µM): 68.4% | viability, T/C (second compound 0.316 µM, first compound 3.16 µM): 70.1% | viability, T/C (second compound 0.316 µM, first compound 10 µM): 63.2% | viability, T/C (second compound 1 µM, first compound 0.0316 µM): 68.5% | viability, T/C (second compound 1 µM, first compound 0.1 µM): 88.3% | viability, T/C (second compound 1 µM, first compound 0.316 µM): 63.4% | viability, T/C (second compound 1 µM, first compound 1 µM): 45.6% | viability, T/C (second compound 1 µM, first compound 3.16 µM): 52.6% | viability, T/C (second compound 1 µM, first compound 10 µM): 44.4% | viability, T/C (second compound 3.16 µM, first compound 0.0316 µM): 71.5% | viability, T/C (second compound 3.16 µM, first compound 0.1 µM): 50.3% | viability, T/C (second compound 3.16 µM, first compound 0.316 µM): 95.8% | viability, T/C (second compound 3.16 µM, first compound 1 µM): 70.2% | viability, T/C (second compound 3.16 µM, first compound 3.16 µM): 72.9% | viability, T/C (second compound 3.16 µM, first compound 10 µM): 49.8% | viability, T/C (second compound 10 µM, first compound 0.0316 µM): 103% | viability, T/C (second compound 10 µM, first compound 0.1 µM): 172% | viability, T/C (second compound 10 µM, first compound 0.316 µM): 117% | viability, T/C (second compound 10 µM, first compound 1 µM): 139% | viability, T/C (second compound 10 µM, first compound 3.16 µM): 102% | viability, T/C (second compound 10 µM, first compound 10 µM): 99.9%

IC50 (second compound 0.03 µM): > 100 nM | IC50 (second compound 0.0949 µM): > 100 nM | IC50 (second compound 0.3 µM): > 100 nM | IC50 (second compound 0.949 µM): > 100 nM | IC50 (second compound 3 µM): > 100 nM
SMILES: NC1CCC(NC2CC2c2ccccc2)CC1 (stereo not given) + CCN1C(C(=O)NC23CCC(C(=O)O)(CC2)CC3)C(c2cccc(Cl)c2F)C2(C(=O)Nc3cc(Cl)ccc32)C12CCCCC2
viability, T/C (second compound 0.03 µM, first compound 0.000316 µM): 59% | viability, T/C (second compound 0.03 µM, first compound 0.001 µM): 52.7% | viability, T/C [1]: 64.8% | viability, T/C [2]: 59.2% | viability, T/C [3]: 57.4% | viability, T/C [4]: 46.1% | viability, T/C (second compound 0.0949 µM, first compound 0.000316 µM): 55.9% | viability, T/C (second compound 0.0949 µM, first compound 0.001 µM): 55.1% | viability, T/C [7]: 69.4% | viability, T/C [8]: 59.3% | viability, T/C [9]: 65% | viability, T/C [10]: 65.8% | viability, T/C (second compound 0.3 µM, first compound 0.000316 µM): 58.5% | viability, T/C (second compound 0.3 µM, first compound 0.001 µM): 44.1% | viability, T/C [13]: 58.8% | viability, T/C [14]: 65.8% | viability, T/C [15]: 48.8% | viability, T/C [16]: 71.4% | viability, T/C (second compound 0.949 µM, first compound 0.000316 µM): 58.5% | viability, T/C (second compound 0.949 µM, first compound 0.001 µM): 66.8% | viability, T/C [19]: 74% | viability, T/C [20]: 67.5% | viability, T/C [21]: 62.5% | viability, T/C [22]: 77.4% | viability, T/C (second compound 3 µM, first compound 0.000316 µM): 84.7% | viability, T/C (second compound 3 µM, first compound 0.001 µM): 109% | viability, T/C [25]: 83.1% | viability, T/C [26]: 113% | viability, T/C [27]: 92.8% | viability, T/C [28]: 91.7%

IC50 (second compound 0.03 µM): > 10000 nM | IC50 (second compound 0.0949 µM): > 10000 nM | IC50 (second compound 0.3 µM): > 10000 nM | IC50 (second compound 0.949 µM): > 10000 nM | IC50 (second compound 3 µM): > 10000 nM
SMILES: C=CC(=O)N1CCN(c2nc(=O)n(-c3c(C)ccnc3C(C)C)c3nc(-c4c(O)cccc4F)c(F)cc23)C(C)C1 (stereo not given) + CCN1C(C(=O)NC23CCC(C(=O)O)(CC2)CC3)C(c2cccc(Cl)c2F)C2(C(=O)Nc3cc(Cl)ccc32)C12CCCCC2
viability, T/C [3]: 75.2% | viability, T/C [4]: 67.4% | viability, T/C [5]: 92.5% | viability, T/C [6]: 113% | viability, T/C (second compound 0.03 µM, first compound 3.16 µM): 127% | viability, T/C (second compound 0.03 µM, first compound 10 µM): 98.3% | viability, T/C [9]: 112% | viability, T/C [10]: 107% | viability, T/C [11]: 113% | viability, T/C [12]: 116% | viability, T/C (second compound 0.0949 µM, first compound 3.16 µM): 114% | viability, T/C (second compound 0.0949 µM, first compound 10 µM): 105% | viability, T/C [15]: 76.2% | viability, T/C [16]: 110% | viability, T/C [17]: 111% | viability, T/C [18]: 122% | viability, T/C (second compound 0.3 µM, first compound 3.16 µM): 130% | viability, T/C (second compound 0.3 µM, first compound 10 µM): 91.2% | viability, T/C [21]: 107% | viability, T/C [22]: 110% | viability, T/C [23]: 140% | viability, T/C [24]: 130% | viability, T/C (second compound 0.949 µM, first compound 3.16 µM): 130% | viability, T/C (second compound 0.949 µM, first compound 10 µM): 90.2% | viability, T/C [27]: 128% | viability, T/C [28]: 135% | viability, T/C [29]: 123% | viability, T/C [30]: 141% | viability, T/C (second compound 3 µM, first compound 3.16 µM): 120% | viability, T/C (second compound 3 µM, first compound 10 µM): 112%
